Experimental findings from ChEMBL document CHEMBL1201862, “PubChem BioAssay data set” (2004) are described below.

The structures appear in SMILES notation. Active and inactive are the calls of the source.

The target of assay [1] is T1, Sentrin-specific protease 7 (Homo sapiens, UniProt Q9BQF6).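 Also: Luminescence-based dose-response confirmation of ultra-high-throughput screening hits, measuring inhibition of SENP7.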
T1 sequence (Q9BQF6 whole entry): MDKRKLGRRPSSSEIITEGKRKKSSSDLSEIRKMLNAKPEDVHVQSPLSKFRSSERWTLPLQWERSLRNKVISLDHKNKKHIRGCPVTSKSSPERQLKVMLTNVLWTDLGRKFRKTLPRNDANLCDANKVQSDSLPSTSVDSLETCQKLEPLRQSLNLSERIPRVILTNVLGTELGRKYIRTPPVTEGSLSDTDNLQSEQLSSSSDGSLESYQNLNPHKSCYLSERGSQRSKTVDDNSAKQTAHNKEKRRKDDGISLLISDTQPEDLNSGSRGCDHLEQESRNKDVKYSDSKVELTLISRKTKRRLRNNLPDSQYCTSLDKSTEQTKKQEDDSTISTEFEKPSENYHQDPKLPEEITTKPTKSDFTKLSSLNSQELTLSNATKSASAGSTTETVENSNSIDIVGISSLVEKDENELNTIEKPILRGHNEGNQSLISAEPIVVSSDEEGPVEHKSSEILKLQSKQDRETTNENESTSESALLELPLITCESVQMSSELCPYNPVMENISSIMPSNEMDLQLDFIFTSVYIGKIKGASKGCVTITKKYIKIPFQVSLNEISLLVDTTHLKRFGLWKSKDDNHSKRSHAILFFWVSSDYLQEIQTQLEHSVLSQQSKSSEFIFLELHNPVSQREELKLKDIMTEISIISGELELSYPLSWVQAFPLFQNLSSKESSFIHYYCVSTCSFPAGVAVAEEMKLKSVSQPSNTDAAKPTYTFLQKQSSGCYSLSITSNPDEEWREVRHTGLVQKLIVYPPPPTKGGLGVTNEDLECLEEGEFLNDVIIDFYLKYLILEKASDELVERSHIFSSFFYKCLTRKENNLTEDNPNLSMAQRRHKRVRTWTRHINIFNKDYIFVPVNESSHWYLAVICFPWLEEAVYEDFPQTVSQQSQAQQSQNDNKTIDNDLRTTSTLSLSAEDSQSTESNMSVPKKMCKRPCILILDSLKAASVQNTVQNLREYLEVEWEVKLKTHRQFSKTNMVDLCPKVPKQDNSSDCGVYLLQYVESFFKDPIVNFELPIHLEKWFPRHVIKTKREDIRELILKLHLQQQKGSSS
In kind it is functional.

Assay [2] has as its target Casein kinase I isoform gamma-1 (Homo sapiens, UniProt Q9HCP0). It counts as functional.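 Also: measured as the CSNK1G1 member of a kinome profiling panel.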
The target of assay [3] is Casein kinase I isoform alpha (Homo sapiens, UniProt P48729). In kind it is functional.
Casein kinase I isoform alpha, sequence (P48729 whole entry, canonical isoform): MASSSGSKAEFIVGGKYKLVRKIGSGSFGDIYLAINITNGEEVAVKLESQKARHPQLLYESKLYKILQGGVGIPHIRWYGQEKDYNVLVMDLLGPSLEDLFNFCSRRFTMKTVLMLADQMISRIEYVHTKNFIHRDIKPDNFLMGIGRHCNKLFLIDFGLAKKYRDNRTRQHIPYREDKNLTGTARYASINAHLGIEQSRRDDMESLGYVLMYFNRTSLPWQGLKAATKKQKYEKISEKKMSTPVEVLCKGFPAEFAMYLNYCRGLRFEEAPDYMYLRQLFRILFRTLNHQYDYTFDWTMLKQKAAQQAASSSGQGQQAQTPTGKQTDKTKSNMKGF
Assay [4] concerns the target T2, Rac GTPase-activating protein 1 (Homo sapiens, UniProt Q9H0H5).
T2 sequence (Q9H0H5 whole entry): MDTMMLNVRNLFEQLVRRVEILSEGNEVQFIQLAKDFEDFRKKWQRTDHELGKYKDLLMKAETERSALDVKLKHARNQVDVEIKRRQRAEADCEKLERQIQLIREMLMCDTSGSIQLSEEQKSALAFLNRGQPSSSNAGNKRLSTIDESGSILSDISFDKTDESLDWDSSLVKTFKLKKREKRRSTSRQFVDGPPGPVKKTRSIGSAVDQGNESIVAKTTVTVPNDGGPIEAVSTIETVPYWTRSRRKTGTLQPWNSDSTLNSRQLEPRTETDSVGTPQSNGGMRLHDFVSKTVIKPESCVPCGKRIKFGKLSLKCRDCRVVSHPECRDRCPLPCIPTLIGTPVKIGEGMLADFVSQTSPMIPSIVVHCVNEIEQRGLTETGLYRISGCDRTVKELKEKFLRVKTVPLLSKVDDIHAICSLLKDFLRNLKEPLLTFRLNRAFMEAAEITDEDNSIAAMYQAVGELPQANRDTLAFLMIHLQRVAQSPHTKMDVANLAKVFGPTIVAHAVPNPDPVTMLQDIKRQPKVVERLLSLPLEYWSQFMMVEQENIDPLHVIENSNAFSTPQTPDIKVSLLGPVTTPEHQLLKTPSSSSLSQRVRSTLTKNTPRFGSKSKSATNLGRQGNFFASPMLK
Kind of assay: MgcRacGAP GTPase-activating activity inhibitors, confirmation, biochemical, ADP Hunter fluorescence, primary and confirmatory (AID 624330). It counts as functional.

Assay [5] concerns the target T3, 1-phosphatidylinositol 4,5-bisphosphate phosphodiesterase beta-3 (Homo sapiens, UniProt Q01970).
T3 sequence (Q01970 whole entry): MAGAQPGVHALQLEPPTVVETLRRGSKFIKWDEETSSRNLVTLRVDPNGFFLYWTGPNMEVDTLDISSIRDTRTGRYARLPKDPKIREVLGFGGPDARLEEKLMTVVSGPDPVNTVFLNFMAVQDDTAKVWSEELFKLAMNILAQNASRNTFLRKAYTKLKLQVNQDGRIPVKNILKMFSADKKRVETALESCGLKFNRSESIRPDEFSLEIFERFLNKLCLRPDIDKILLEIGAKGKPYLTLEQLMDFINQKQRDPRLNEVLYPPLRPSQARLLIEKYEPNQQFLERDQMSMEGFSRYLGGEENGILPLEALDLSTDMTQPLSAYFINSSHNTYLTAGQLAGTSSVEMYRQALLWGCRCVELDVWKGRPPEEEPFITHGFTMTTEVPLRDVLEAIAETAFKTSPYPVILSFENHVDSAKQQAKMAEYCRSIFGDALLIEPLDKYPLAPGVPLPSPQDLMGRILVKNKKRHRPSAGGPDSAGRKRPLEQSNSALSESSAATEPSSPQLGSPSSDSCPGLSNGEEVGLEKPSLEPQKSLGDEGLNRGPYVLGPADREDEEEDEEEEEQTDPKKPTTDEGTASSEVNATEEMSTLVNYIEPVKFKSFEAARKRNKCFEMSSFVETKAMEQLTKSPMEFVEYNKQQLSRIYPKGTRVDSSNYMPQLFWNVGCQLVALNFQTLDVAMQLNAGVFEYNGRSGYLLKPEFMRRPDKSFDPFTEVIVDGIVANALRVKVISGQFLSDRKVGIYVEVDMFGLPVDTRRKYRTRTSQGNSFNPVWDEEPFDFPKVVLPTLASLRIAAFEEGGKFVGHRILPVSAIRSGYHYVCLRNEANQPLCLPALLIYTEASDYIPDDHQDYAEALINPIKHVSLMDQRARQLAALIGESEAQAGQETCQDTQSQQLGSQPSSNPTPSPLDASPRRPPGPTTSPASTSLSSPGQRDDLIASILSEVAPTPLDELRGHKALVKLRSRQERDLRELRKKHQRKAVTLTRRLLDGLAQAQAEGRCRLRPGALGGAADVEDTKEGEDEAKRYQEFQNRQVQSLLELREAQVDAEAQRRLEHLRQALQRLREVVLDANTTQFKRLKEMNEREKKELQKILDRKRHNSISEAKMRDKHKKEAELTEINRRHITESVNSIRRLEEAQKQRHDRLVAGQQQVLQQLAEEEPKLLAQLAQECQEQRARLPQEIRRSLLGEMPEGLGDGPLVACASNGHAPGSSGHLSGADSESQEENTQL
Kind of assay: Fluorescence-based biochemical high throughput dose response assay to identify inhibitors of phospholipase C isozymes (PLC-B3).

Casein kinase I isoform gamma-1, sequence (Q9HCP0 whole entry, canonical isoform): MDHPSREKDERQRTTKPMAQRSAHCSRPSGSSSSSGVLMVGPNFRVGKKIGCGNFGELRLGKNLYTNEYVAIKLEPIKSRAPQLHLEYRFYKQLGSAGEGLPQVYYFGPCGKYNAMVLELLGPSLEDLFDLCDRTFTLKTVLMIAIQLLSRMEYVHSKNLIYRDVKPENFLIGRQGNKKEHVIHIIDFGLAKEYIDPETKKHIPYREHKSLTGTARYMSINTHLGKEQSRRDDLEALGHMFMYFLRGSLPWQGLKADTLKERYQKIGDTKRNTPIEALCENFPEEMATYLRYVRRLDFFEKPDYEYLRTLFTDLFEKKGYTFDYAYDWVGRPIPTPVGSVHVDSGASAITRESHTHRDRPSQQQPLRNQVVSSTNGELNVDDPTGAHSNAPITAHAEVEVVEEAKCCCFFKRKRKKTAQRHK

Turning to `CN(C)S(=O)(=O)Oc1cccc(C(=O)Nc2ccc(Cl)c(Cl)c2)c1`, the IC50 – broadly, the midpoint of a concentration-inhibition curve – in assay [1] was 5.38 µM (active).

In the case of `Nc1noc2cccc(-c3cccc(O)c3)c12`, the Ki (commonly a dissociation constant, usually derived from enzyme kinetics or from competition with a known ligand) in assay [2] was > 6.31 µM (inactive); in assay [3], > 5.01 µM (inactive).

In the case of `Cc1ccc2[nH]c(/C(C#N)=C/c3ccc(O)c(O)c3)nc2c1`, the half-maximal inhibitory concentration (IC50) in assay [1] is 9.9 µM (active); in assay [4] it was 22.3 µM (active).

As for `O=C1NC(=S)S/C1=C\C=C\c1ccc([N+](=O)[O-])o1`, the IC50 in assay [5] was > 122 µM (inactive); in assay [4], 37.7 µM (active).

Turning to `O=C(NN1C(=O)CSC1=S)C(=O)NN1C(=O)CSC1=S`, the IC50 in assay [5] is > 122 µM (inactive).
